Source: PubChem BioAssay AID248 (DTP/NCI, 2004)
“And” between values parts separate entries of the source, which are not always exact repeats. Equal values may be shown once. Toxic doses and inconclusive results are not listed. Cut-off read from the data, not from the text of the source: active = T/C of 150% or more; inactive = T/C below 125%.

Tested on: L1210 leukemia ip in BDF1 mice, survival T/C
Assay: NCI In Vivo Anticancer Drug Screen. Data for tumor model L1210 Leukemia (intraperitoneal) in B6D2F1 (BDF1) mice
Settings: endpoint: mean survival time, higher = longer survival
In short: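 Antitumor effect is assessed in tumor-bearing animals. Survival in the compound arm is compared with a vehicle-dosed control arm and expressed as their quotient.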

[1] = dose: 100.0 mg/kg/injection, schedule: Q04DX002 (ip), vehicle: Klucel (hydroxypropylcellulose) (HPC)
[2] = dose: 200.0 mg/kg/injection, schedule: Q04DX002 (ip), vehicle: Klucel (hydroxypropylcellulose) (HPC)
[3] = dose: 400.0 mg/kg/injection, schedule: Q04DX002 (ip), vehicle: Klucel (hydroxypropylcellulose) (HPC)
[4] = dose: 100.0 mg/kg/injection, schedule: Q01DX001 (ip), vehicle: saline
[5] = dose: 200.0 mg/kg/injection, schedule: Q01DX001 (ip), vehicle: saline
[6] = dose: 400.0 mg/kg/injection, schedule: Q01DX001 (ip), vehicle: saline

Measured: T/C

CN(CC(=O)O)C(=N)N
inactive: dose: 100.0 mg/kg/injection, schedule: Q01DX001 (ip), vehicle: carboxymethylcellulose (CMC) 92 % of control | dose: 200.0 mg/kg/injection, schedule: Q01DX001 (ip), vehicle: carboxymethylcellulose (CMC) 94 % of control | dose: 250.0 mg/kg/injection, schedule: Q01DX Z (ip), vehicle: saline 94 % of control | dose: 400.0 mg/kg/injection, schedule: Q01DX001 (ip), vehicle: carboxymethylcellulose (CMC) 97 % of control | dose: 500.0 mg/kg/injection, schedule: Q01DX Z (ip), vehicle: saline 104 % of control | dose: 1000.0 mg/kg/injection, schedule: Q01DX Z (ip), vehicle: saline 107 % of control | dose: 1500.0 mg/kg/injection, schedule: Q#A X Z (ip), vehicle: water 117 % of control | dose: 2500.0 mg/kg/injection, schedule: Q#A X Z (ip), vehicle: water 95 % of control

O=C1C=C2CCCC2CC1 (stereo not given)
inactive: dose: 75.0 mg/kg/injection, schedule: Q01DX001 (ip), vehicle: other 97 % of control | dose: 75.0 mg/kg/injection, schedule: Q04DX003 (ip), vehicle: other 93 % of control | dose: 150.0 mg/kg/injection, schedule: Q01DX001 (ip), vehicle: other 92 % of control | dose: 150.0 mg/kg/injection, schedule: Q04DX003 (ip), vehicle: other 98 % of control | dose: 300.0 mg/kg/injection, schedule: Q01DX001 (ip), vehicle: other 94 % of control | dose: 300.0 mg/kg/injection, schedule: Q04DX003 (ip), vehicle: other 92 % of control

CC1=CC(C)C(=O)N(CC(C)N2CCCC2)C(C)=C1 (stereo not given)
inactive: dose: 75.0 mg/kg/injection, schedule: Q01DX001 (ip), vehicle: carboxymethylcellulose (CMC) 102 % of control

O=C(O)Cn1[nH]c(=O)ccc1=O
inactive: dose: 100.0 mg/kg/injection, schedule: Q01DX001 (ip), vehicle: saline with Tween-80 103 % of control | dose: 200.0 mg/kg/injection, schedule: Q01DX001 (ip), vehicle: saline with Tween-80 103 % of control | dose: 400.0 mg/kg/injection, schedule: Q01DX001 (ip), vehicle: saline with Tween-80 102 % of control

O=S1c2ccccc2Oc2ccccc21
inactive: [1] 108 % of control | [2] 108 % of control | [3] 108 % of control

CCOC(=O)CSC#N
inactive: [4] 101 % of control | [1] 95 % of control | [5] 101 % of control | [2] 91 % of control | [6] 95 % of control | [3] 107 % of control

C#CC1(NC(=S)Nc2ccc(C)cc2)CCCCC1
inactive: dose: 100.0 mg/kg/injection, schedule: Q01DX009 (ip), vehicle: carboxymethylcellulose (CMC) 100 % of control and 92 % of control | dose: 200.0 mg/kg/injection, schedule: Q01DX009 (ip), vehicle: carboxymethylcellulose (CMC) 95 % of control and 100 % of control | dose: 400.0 mg/kg/injection, schedule: Q01DX009 (ip), vehicle: carboxymethylcellulose (CMC) 106 % of control and 113 % of control

CCC[N+]12CC=C(CO)C1C(O)CC2 (stereo not given)
inactive: [4] 103 % of control | [5] 100 % of control | [6] 110 % of control

Oc1ccccc1C=NCCN=Cc1ccccc1O.[Ni]
inactive: dose: 88.0 mg/kg/injection, schedule: Q01DX001 (ip), vehicle: other 109 % of control | dose: 100.0 mg/kg/injection, schedule: Q01DX001 (ip), vehicle: other 100 % of control | dose: 133.0 mg/kg/injection, schedule: Q01DX001 (ip), vehicle: other 107 % of control | dose: 200.0 mg/kg/injection, schedule: Q01DX001 (ip), vehicle: other 108 % of control

O=C(Nc1cccc(O)c1)OCCCl
inactive: dose: 100.0 mg/kg/injection, schedule: Q01DX001 (ip), vehicle: saline + alcohol 105 % of control | dose: 200.0 mg/kg/injection, schedule: Q01DX001 (ip), vehicle: saline + alcohol 102 % of control | dose: 400.0 mg/kg/injection, schedule: Q01DX001 (ip), vehicle: saline + alcohol 92 % of control
